These results are taken from patent US20180339976A1, “NOVEL TRIAZOLE DERIVATIVES” (priority 2015, published 2018).

Where two headings read alike, the source gives them in different places.

This series in a line: Log P by HPLC on reversed phase columns (EEC directive 79/831 Annex V.A8). The series is classed as physicochemical. The protocol:
Measurement of Log P values was performed according to EEC directive 79/831 Annex V.A8 by HPLC (High Performance Liquid Chromatography) on reversed phase columns with the following methods: • ^[a]
If more than one Log P value is available within the same method, all the values are given and separated by “+”.
Lambda-max-values were determined using UV-spectra from 200 nm to 400 nm and the peak values of the chromatographic signals.

The mark [1] stands for this setting: Table 2, epoxides of formula (XII), method [a]: LC-UV, acidic range, 0.1% formic acid in water and acetonitrile.

In the case of `N#Cc1ccc(C(O)(Cc2cccnc2Cl)Cn2cncn2)cc1` (centres unmarked) [Example I-35], the LogP is 1.47^[a].
Take `Fc1ccc(Oc2ccc(C3(Cc4ccncc4Cl)CO3)cc2)c(F)c1` (centres unmarked) [XII-33]: the LogP under setting [1] is 3.80^[a].
Turning to `OC(Cc1cc(F)ncc1Cl)(Cn1cncn1)c1ccc(Oc2ccc(F)cc2F)cc1` (centres unmarked) [Example I-54], the LogP is 3.02^[a].
`OC(Cc1ccnc(Cl)c1F)(Cn1cncn1)c1ccc(F)cc1F` (single isomer, unassigned) [Example I-55]: the LogP was 2.21^[a].
As for `Fc1cc(Cl)ccc1C1(Cc2cccnc2Cl)CO1` (centres unmarked) [XII-1, 2-chloro-3-[[2-(4-chloro-2-fluoro-phenyl)oxiran-2-yl]methyl]pyridine], the chromatographic logP (commonly a lipophilicity value derived from retention on a column) is 3.31.
`OC(Cc1ccncc1F)(Cn1cncn1)c1ccc(Cl)cc1Cl` (centres unmarked) [Example I-53]: the LogP was 2.00^[a].
On to `Fc1ccc(Oc2ccc(C3(Cc4ccncc4F)CO3)cc2)c(F)c1` (centres unmarked) [XII-5], for which, under setting [1], the LogP is 3.37^[a].
For `Clc1cccc(C2(Cc3cccnc3Cl)CO2)c1` (centres unmarked) [XII-23], the LogP under setting [1] is 3.24^[a].
